Tests used:
[1] = Growth inhibition of BALB/cJRj mouse astrocytes/oligodendrocytes at 50 uM after 24 hrs by trypan blue-based cell counting method
C6 [2] = experiment: Growth inhibition of rat C6 cells after 24 hrs by trypan blue-based cell counting method; assay type: functional; conditions: C6, 24 h
[3] = Cytotoxicity against human SK-N-BE cells assessed as cell viability after 24 hrs by trypan blue-based cell counting method; assay type: functional; conditions: read-out: LD50 (the source's name)
[4] = Cytotoxicity against mouse 158N cells assessed as cell viability after 24 hrs by trypan blue-based cell counting method; conditions: read-out: LD50
[5] = Growth inhibition of human SK-N-BE cells after 24 hrs by trypan blue-based cell counting method; assay type: functional
[6] = Growth inhibition of mouse 158N cells after 24 hrs by trypan blue-based cell counting method
[7] = Cytotoxicity against BALB/cJRj mouse astrocytes/oligodendrocytes assessed as cell viability at 50 uM after 24 hrs by trypan blue-based cell counting method; conditions: for viability at 24 h, 50 µM: BALB/cJRj, astrocytes/oligodendrocytes, read-out: Activity; for Activity: 24 h, 50 µM
C6 [8] = experiment: Cytotoxicity against rat C6 cells assessed as cell viability after 24 hrs by trypan blue-based cell counting method; assay type: functional; conditions: C6, 24 h, read-out: LD50 (the source's name)
[9] = Cytostatic activity against mouse 158N cells assessed as growth inhibition after 24 hrs by trypan blue-based cell counting method
C6 [10] = experiment: Cytostatic activity against rat C6 cells assessed as growth inhibition after 24 hrs by trypan blue-based cell counting method; assay type: functional; conditions: C6, 24 h
C6 [11] = experiment: Cytostatic activity against rat C6 cells assessed as cell viability after 24 hrs by trypan blue-based cell counting method; assay type: functional; conditions: C6, 24 h, read-out: LD50 (the source's name)
[12] = Cytostatic activity against mouse 158N cells assessed as cell viability after 24 hrs by trypan blue-based cell counting method; conditions: read-out: LD50

SMILES: CC(C)CCC[C@@H](C)[C@H]1CC[C@H]2[C@@H]3C(=O)C=C4C[C@@H](O)CC[C@]4(C)[C@H]3CC[C@]12C [7-OXOCHOLESTEROL]
- Activity [1]: Toxic
- IC50 (C6 [2]): 20 µM
- CC50 [3]: 60 µM
- CC50 at 24 h [4]: 30 µM
- IC50 [5]: 20 µM
- IC50 [6]: 10 µM
- viability at 24 h, 50 µM [7]: 70.5%
- CC50 (C6 [8]): 60 µM

SMILES: CC(C)CCC[C@@H](C)[C@H]1CC[C@H]2[C@@H]3CC=C4[C@@H](O)[C@@H](O)CC[C@]4(C)[C@H]3CC[C@]12C
- Activity [1]: Non-toxic
- IC50 [9]: 30 µM
- CC50 [3]: > 160 µM
- IC50 (C6 [10]): ≥ 160 µM
- IC50 [5]: > 160 µM
- CC50 (C6 [11]): > 160 µM
- Activity [7]: Non-toxic
- CC50 at 24 h [12]: > 160 µM

SMILES: CC(C)CCC[C@@H](C)[C@H]1CC[C@H]2[C@@H]3[C@@H](O)C=C4C[C@@H](O)CC[C@]4(C)[C@H]3CC[C@]12C
- Activity [1]: Toxic
- IC50 (C6 [2]): 15 µM
- CC50 [3]: 55 µM
- CC50 at 24 h [4]: 15 µM
- IC50 [5]: 20 µM
- IC50 [6]: 15 µM
- viability at 24 h, 50 µM [7]: 19.9%
- CC50 (C6 [8]): 60 µM

SMILES: CC(C)CCC[C@@H](C)[C@H]1CC[C@H]2[C@@H]3[C@H](O)C=C4C[C@@H](O)CC[C@]4(C)[C@H]3CC[C@]12C
- Activity [1]: Non-toxic
- IC50 (C6 [2]): 40 µM
- CC50 [3]: > 160 µM
- CC50 at 24 h [4]: 60 µM
- IC50 [5]: ≥ 160 µM
- IC50 [6]: 15 µM
- Activity [7]: Non-toxic
- CC50 (C6 [8]): ≥ 160 µM

SMILES: CC(C)CCC[C@@H](C)[C@H]1CC[C@H]2[C@@H]3CC=C4[C@H](O)[C@@H](O)CC[C@]4(C)[C@H]3CC[C@]12C
- Activity [1]: Non-toxic
- IC50 [9]: 40 µM
- CC50 [3]: > 160 µM
- IC50 (C6 [10]): ≥ 160 µM
- IC50 [5]: > 160 µM
- CC50 (C6 [11]): > 160 µM
- Activity [7]: Non-toxic
- CC50 at 24 h [12]: > 160 µM
